From patent US12139520B2 (priority 2020, dated 2024)
Numbered stars: 1 amine (or outer) side, 2 acyl side, 3 side chain; on linkers, the order of the positions; unused ones are H or OH. Bridge positions count the residues as written; N and C are the ends. Square brackets hold non-standard residues; d marks the D form. Peptide text beside a SMILES is read from it. * marks the point of attachment. C20 diacid = O=C(O)CCCCCCCCCCCCCCCCCCC(=O)*; γGlu = O=C(O)[C@H](CCC(=O)[*:2])N[*:1]; Hyp = O=C(O)[C@@H]1C[C@@H](O)CN1

These compounds were tested against T1, hAMY3 receptor (Homo sapiens, UniProt O60896+P30988) (assay: cAMP assay for in vitro receptor activation, hAMY3-R). Conditions: cAMP assay, hAMY3 receptor; read-out: hAMY3R EC50.
T1 sequence (P30988 25-474): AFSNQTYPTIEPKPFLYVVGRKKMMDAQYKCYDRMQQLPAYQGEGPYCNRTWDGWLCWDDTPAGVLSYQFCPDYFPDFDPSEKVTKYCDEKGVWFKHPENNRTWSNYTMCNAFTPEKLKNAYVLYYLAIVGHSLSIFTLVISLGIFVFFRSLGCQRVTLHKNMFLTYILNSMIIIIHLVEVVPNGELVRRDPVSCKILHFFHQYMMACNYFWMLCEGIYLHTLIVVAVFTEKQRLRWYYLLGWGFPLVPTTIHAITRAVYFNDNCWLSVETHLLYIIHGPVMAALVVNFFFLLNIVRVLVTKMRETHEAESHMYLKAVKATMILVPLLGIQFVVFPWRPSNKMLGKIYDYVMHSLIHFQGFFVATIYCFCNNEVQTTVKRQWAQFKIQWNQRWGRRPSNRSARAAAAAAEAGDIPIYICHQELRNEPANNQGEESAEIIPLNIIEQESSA
T1 sequence (O60896 24-148 partner): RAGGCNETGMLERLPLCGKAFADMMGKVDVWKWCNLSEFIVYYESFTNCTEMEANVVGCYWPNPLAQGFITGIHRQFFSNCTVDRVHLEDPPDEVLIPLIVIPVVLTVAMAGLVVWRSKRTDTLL
Type: cell-based
Procedure: General Protocols for cAMP Assays for Measuring In Vitro Receptor Activation
Cells stably overexpressing the hAMY3 receptor were obtained from Ogeda (now Astellas Pharma), sub-cloned and a monoclonal cell-line with an appropriate assay-window was expanded, aliquoted and frozen.
An aliquot was thawed and plated in DPBS with 0.05% casein and 0.5 mM IBMX as 2000 cells/well in a 384-well format. The cells were then immediately stimulated for 30 min at room temperature with graded doses of test compound using human amylin (Bachem, cat no. H-7905) as a positive control. cAMP accumulation was measured using a Cisbio assay for Gs coupled receptors (cat. no. 62AM4PEC), where the assay reagents were added as per the manufacturer's instructions and time-resolved fluorescence energy transfer recorded after one hour.

CC[C@H](C)[C@H](NC(=O)[C@H](CCC(N)=O)NC(=O)[C@H](Cc1c[nH]cn1)NC(=O)[C@H](C)NC(=O)[C@H](CC(C)C)NC(=O)[C@H](CCCNC(=N)N)NC(=O)[C@H](C)NC(=O)[C@@H](NC(=O)[C@@H](NC(=O)[C@@H]1CSSC[C@H](NC(=O)[C@H](CCCCN)NC(=O)CC[C@H](NC(=O)CCCCCCCCCCCCCCCCCCC(=O)O)C(=O)O)C(=O)N[C@@H](CC(N)=O)C(=O)N[C@@H]([C@@H](C)O)C(=O)N[C@@H](C)C(=O)N[C@@H]([C@@H](C)O)C(=O)N1)[C@@H](C)O)C(C)C)C(=O)N[C@@H](C)C(=O)N[C@@H](CCC(N)=O)C(=O)N[C@@H](Cc1ccccc1)C(=O)N[C@H](C(=O)N[C@@H](CC(=O)O)C(=O)N[C@@H](CCCCN)C(=O)N[C@@H](CC(=O)O)C(=O)N[C@@H](CCCCN)C(=O)N[C@@H](CC(=O)O)C(=O)N[C@@H](CC(N)=O)C(=O)N[C@H](C(=O)N[C@@H](C)C(=O)N1CCC[C@H]1C(=O)N1CCC[C@H]1C(=O)N[C@H](C(=O)N[C@@H](CC(N)=O)C(=O)N[C@H](C(=O)NCC(=O)N[C@@H](CO)C(=O)N[C@@H](CC(N)=O)C(=O)NCC(=O)N1C[C@H](O)C[C@H]1C(N)=O)C(C)C)[C@@H](C)O)C(C)C)[C@@H](C)O [compound 107] ({C20 diacid-γGlu}-KCNTATCTVARLAHQIAQFTDKDKDNVAPPTNVGSNG[Hyp]-NH2; disulfide 2-7) and CC[C@H](C)[C@H](NC(=O)[C@H](CCC(N)=O)NC(=O)[C@H](Cc1c[nH]cn1)NC(=O)[C@H](C)NC(=O)[C@H](CC(C)C)NC(=O)[C@H](CCCNC(=N)N)NC(=O)[C@H](CCC(N)=O)NC(=O)[C@@H](NC(=O)[C@@H](NC(=O)[C@@H]1CSSC[C@H](NC(=O)[C@H](CCCCN)NC(=O)CC[C@H](NC(=O)CCCCCCCCCCCCCCCCCCC(=O)O)C(=O)O)C(=O)N[C@@H](CC(N)=O)C(=O)N[C@@H]([C@@H](C)O)C(=O)N[C@@H](C)C(=O)N[C@@H]([C@@H](C)O)C(=O)N1)[C@@H](C)O)C(C)C)C(=O)N[C@@H](Cc1ccc(O)cc1)C(=O)N[C@@H](CCC(N)=O)C(=O)N[C@@H](Cc1ccccc1)C(=O)N[C@H](C(=O)N[C@@H](CC(N)=O)C(=O)N[C@@H](CCCCN)C(=O)N[C@@H](CC(=O)O)C(=O)N[C@@H](CCCCN)C(=O)N[C@@H](CC(=O)O)C(=O)N[C@@H](CC(N)=O)C(=O)N[C@H](C(=O)N[C@@H](C)C(=O)N1CCC[C@H]1C(=O)N1CCC[C@H]1C(=O)N[C@H](C(=O)N[C@@H](CC(N)=O)C(=O)N[C@H](C(=O)NCC(=O)N[C@@H](CO)C(=O)N[C@@H](CC(N)=O)C(=O)NCC(=O)N1C[C@H](O)C[C@H]1C(N)=O)C(C)C)[C@@H](C)O)C(C)C)[C@@H](C)O [compound 82] ({C20 diacid-γGlu}-KCNTATCTVQRLAHQIYQFTNKDKDNVAPPTNVGSNG[Hyp]-NH2; disulfide 2-7) are within 1.5-fold of each other in EC50: 0.019 nM for the first, 0.015 nM for the second.

Going from CC[C@H](C)[C@H](NC(=O)[C@H](CCC(N)=O)NC(=O)[C@H](Cc1c[nH]cn1)NC(=O)[C@H](C)NC(=O)[C@H](CC(C)C)NC(=O)[C@H](CCCNC(=N)N)NC(=O)[C@H](CCC(N)=O)NC(=O)[C@@H](NC(=O)[C@@H](NC(=O)[C@@H]1CSSC[C@H](NC(=O)[C@@H](N)CCCCN)C(=O)N[C@@H](CC(N)=O)C(=O)N[C@@H](Cc2ccccc2)C(=O)N[C@@H](C)C(=O)N[C@@H]([C@@H](C)O)C(=O)N1)[C@@H](C)O)C(C)C)C(=O)N[C@@H](Cc1ccc(O)cc1)C(=O)N[C@@H](CCC(N)=O)C(=O)N[C@@H](Cc1ccccc1)C(=O)N[C@H](C(=O)N[C@@H](CC(=O)O)C(=O)N[C@@H](CCCCN)C(=O)N[C@@H](CC(=O)O)C(=O)N[C@@H](CCCCN)C(=O)N[C@@H](CC(=O)O)C(=O)N[C@@H](CC(N)=O)C(=O)N[C@H](C(=O)N[C@@H](C)C(=O)N1CCC[C@H]1C(=O)N[C@@H](CCCNC(=N)N)C(=O)N[C@H](C(=O)N[C@@H](CCCCN)C(=O)N[C@H](C(=O)NCC(=O)N[C@@H](CO)C(=O)N[C@@H](CC(N)=O)C(=O)NCC(=O)N1C[C@H](O)C[C@H]1C(N)=O)C(C)C)[C@@H](C)O)C(C)C)[C@@H](C)O [compound 3] (H-KCNFATCTVQRLAHQIYQFTDKDKDNVAPRTKVGSNG[Hyp]-NH2; disulfide 2-7) to CC[C@H](C)[C@H](NC(=O)[C@H](CCCCN)NC(=O)[C@H](CO)NC(=O)[C@H](CCCNC(=N)N)NC(=O)[C@@H]1CCCN1C(=O)[C@H](C)NC(=O)[C@@H](NC(=O)[C@H](CC(N)=O)NC(=O)[C@H](CC(=O)O)NC(=O)[C@H](CCCCN)NC(=O)[C@H](CC(=O)O)NC(=O)[C@H](CCCCN)NC(=O)[C@H](CC(=O)O)NC(=O)[C@@H](NC(=O)[C@H](Cc1ccccc1)NC(=O)[C@H](CCC(N)=O)NC(=O)[C@H](Cc1ccc(O)cc1)NC(=O)[C@@H](NC(=O)[C@H](CCC(N)=O)NC(=O)[C@H](Cc1c[nH]cn1)NC(=O)[C@H](C)NC(=O)[C@H](CC(C)C)NC(=O)[C@H](CCCNC(=N)N)NC(=O)[C@H](CCC(N)=O)NC(=O)[C@@H](NC(=O)[C@@H](NC(=O)[C@@H]1CSSC[C@H](NC(=O)CN)C(=O)N[C@@H](CCCNC(=N)N)C(=O)N[C@@H]([C@@H](C)O)C(=O)NCC(=O)N[C@@H]([C@@H](C)O)C(=O)N1)[C@@H](C)O)C(C)C)[C@@H](C)CC)[C@@H](C)O)C(C)C)C(=O)NCC(=O)N1CCC[C@H]1C(=O)N[C@@H](CC(N)=O)C(=O)NCC(=O)N1C[C@H](O)C[C@H]1C(N)=O [compound 157] (H-GCRTGTCTVQRLAHQIYQFTDKDKDNVAPRSKIGPNG[Hyp]-NH2; disulfide 2-7; N-terminus assumed), the EC50 rises from 0.006 nM to 0.047 nM (7.8-fold). The first is the more potent here.

CC[C@H](C)[C@H](NC(=O)[C@H](CCC(N)=O)NC(=O)[C@H](Cc1c[nH]cn1)NC(=O)[C@H](C)NC(=O)[C@H](CC(C)C)NC(=O)[C@H](CCCNC(=N)N)NC(=O)[C@H](CCC(N)=O)NC(=O)[C@@H](NC(=O)[C@@H](NC(=O)[C@@H]1CSSC[C@H](NC(=O)CN)C(=O)N[C@@H](CCCNC(=N)N)C(=O)N[C@@H](Cc2ccccc2)C(=O)NCC(=O)N[C@@H]([C@@H](C)O)C(=O)N1)[C@@H](C)O)C(C)C)C(=O)N[C@@H](Cc1ccc(O)cc1)C(=O)N[C@@H](CCC(N)=O)C(=O)N[C@@H](Cc1ccccc1)C(=O)N[C@H](C(=O)N[C@@H](CC(=O)O)C(=O)N[C@@H](CCCCN)C(=O)N[C@@H](CC(=O)O)C(=O)N[C@@H](CCCCN)C(=O)N[C@@H](CC(=O)O)C(=O)N[C@@H](CC(N)=O)C(=O)N[C@H](C(=O)N[C@@H](C)C(=O)N1CCC[C@H]1C(=O)N[C@@H](CCCNC(=N)N)C(=O)N[C@@H](CO)C(=O)N[C@@H](CCCCN)C(=O)N[C@H](C(=O)N[C@@H](CO)C(=O)N1CCC[C@H]1C(=O)N[C@@H](CC(N)=O)C(=O)NCC(=O)N[C@@H](Cc1ccc(O)cc1)C(N)=O)C(C)C)C(C)C)[C@@H](C)O [compound 384] (H-GCRFGTCTVQRLAHQIYQFTDKDKDNVAPRSKVSPNGY-NH2; disulfide 2-7; N-terminus assumed) and CC[C@H](C)[C@H](NC(=O)[C@H](CCC(N)=O)NC(=O)[C@H](Cc1c[nH]cn1)NC(=O)[C@H](C)NC(=O)[C@H](CC(C)C)NC(=O)[C@H](CCCNC(=N)N)NC(=O)[C@H](CCC(N)=O)NC(=O)[C@@H](NC(=O)[C@@H](NC(=O)[C@@H]1CSSC[C@H](NC(=O)[C@H](CCCCN)NC(=O)CC[C@H](NC(=O)CCCCCCCCCCCCCCCCCCC(=O)O)C(=O)O)C(=O)N[C@@H](CC(N)=O)C(=O)N[C@@H](Cc2ccccc2)C(=O)N[C@@H](C)C(=O)N[C@@H]([C@@H](C)O)C(=O)N1)[C@@H](C)O)C(C)C)C(=O)N[C@@H](Cc1ccc(O)cc1)C(=O)N[C@@H](CCC(N)=O)C(=O)N[C@@H](Cc1ccccc1)C(=O)N[C@H](C(=O)N[C@@H](CC(=O)O)C(=O)N[C@@H](CCCCN)C(=O)N[C@@H](CC(=O)O)C(=O)N[C@@H](CCCCN)C(=O)N[C@@H](CC(=O)O)C(=O)N[C@@H](CC(N)=O)C(=O)N[C@H](C(=O)N[C@@H](C)C(=O)N1CCC[C@H]1C(=O)N[C@@H](CCCNC(=N)N)C(=O)N[C@H](C(=O)N[C@@H](CCCCN)C(=O)N[C@H](C(=O)NCC(=O)N[C@@H](CO)C(=O)N[C@@H](CC(N)=O)C(=O)NCC(=O)N[C@@H](Cc1ccc(O)cc1)C(N)=O)C(C)C)[C@@H](C)O)C(C)C)[C@@H](C)O [compound 378] ({C20 diacid-γGlu}-KCNFATCTVQRLAHQIYQFTDKDKDNVAPRTKVGSNGY-NH2; disulfide 2-7) are within 1.5-fold of each other in EC50: 0.036 nM for the first, 0.027 nM for the second.
